Measurements published in ChEMBL document CHEMBL4130350, “Discovery, mechanism and metabolism studies of 2,3-difluorophenyl-linker-containing PARP1 inhibitors with enhanced in vivo efficacy for cancer therapy” (Eur J Med Chem, 2017).
pIC50: −log10 of the molar value. The source made the active and inactive calls. No cut-off for these calls is given here.

What was measured:
[1] = test system: Mus musculus; experiment: Toxicity in nude BALB/cA mouse xenografted with human MDA-MB-436 cells harboring BRCA1 mutant assessed as mortality at 50 mg/kg, po administered once daily for 21 consecutive days measured twice per week; format: organism-based; conditions: in vivo
[2] = test system: MDA-MB-436; experiment: Induction of apoptosis in human MDA-MB-436 cells assessed as late apoptotic cells at 0.1 uM after 96 hrs by Annexin V-FITC/propidium iodide double-staining based flow cytometery (reference value: 5.61%); format: functional
[3] = test system: MDA-MB-436; experiment: Induction of apoptosis in human MDA-MB-436 cells assessed as caspase-3/7 activation at 0.1 to 1 uM after 72 hrs by Caspase-Glo 3/7 assay; format: functional, cell-based
[4] = test system: CAPAN-1; experiment: Antitumor activity against human Capan1 cells harboring BRCA2 mutant xenografted in nude BALB/cA mouse assessed as tumor growth inhibition at 40 mg/kg, po administered once daily for 21 consecutive days measured twice per week; format: functional; conditions: CAPAN-1, po, read-out: TGI
[5] = Oral bioavailability in Sprague-Dawley rat at 10 mg/kg by LC-MS/MS analysis; format: ADME, organism-based; conditions: in vivo
[6] = Protein binding in mouse plasma at 0.5 to 50 uM after 4 hrs by LC-MS/MS analysis; format: ADME, cell-free; conditions: read-out: PPB (converted)
[7] = Cytotoxicity against BRCA2 deficient Chinese hamster VC8 cells after 3 days by CCK8 or SRB assay; format: functional, cell-based; conditions: Cricetulus griseus, V-C8, 72 h
[8] = target: T1, Poly [ADP-ribose] polymerase 1 (Homo sapiens, UniProt P09874); experiment: Inhibition of PARP1 (unknown origin) by ELISA
T1 sequence (P09874 whole entry): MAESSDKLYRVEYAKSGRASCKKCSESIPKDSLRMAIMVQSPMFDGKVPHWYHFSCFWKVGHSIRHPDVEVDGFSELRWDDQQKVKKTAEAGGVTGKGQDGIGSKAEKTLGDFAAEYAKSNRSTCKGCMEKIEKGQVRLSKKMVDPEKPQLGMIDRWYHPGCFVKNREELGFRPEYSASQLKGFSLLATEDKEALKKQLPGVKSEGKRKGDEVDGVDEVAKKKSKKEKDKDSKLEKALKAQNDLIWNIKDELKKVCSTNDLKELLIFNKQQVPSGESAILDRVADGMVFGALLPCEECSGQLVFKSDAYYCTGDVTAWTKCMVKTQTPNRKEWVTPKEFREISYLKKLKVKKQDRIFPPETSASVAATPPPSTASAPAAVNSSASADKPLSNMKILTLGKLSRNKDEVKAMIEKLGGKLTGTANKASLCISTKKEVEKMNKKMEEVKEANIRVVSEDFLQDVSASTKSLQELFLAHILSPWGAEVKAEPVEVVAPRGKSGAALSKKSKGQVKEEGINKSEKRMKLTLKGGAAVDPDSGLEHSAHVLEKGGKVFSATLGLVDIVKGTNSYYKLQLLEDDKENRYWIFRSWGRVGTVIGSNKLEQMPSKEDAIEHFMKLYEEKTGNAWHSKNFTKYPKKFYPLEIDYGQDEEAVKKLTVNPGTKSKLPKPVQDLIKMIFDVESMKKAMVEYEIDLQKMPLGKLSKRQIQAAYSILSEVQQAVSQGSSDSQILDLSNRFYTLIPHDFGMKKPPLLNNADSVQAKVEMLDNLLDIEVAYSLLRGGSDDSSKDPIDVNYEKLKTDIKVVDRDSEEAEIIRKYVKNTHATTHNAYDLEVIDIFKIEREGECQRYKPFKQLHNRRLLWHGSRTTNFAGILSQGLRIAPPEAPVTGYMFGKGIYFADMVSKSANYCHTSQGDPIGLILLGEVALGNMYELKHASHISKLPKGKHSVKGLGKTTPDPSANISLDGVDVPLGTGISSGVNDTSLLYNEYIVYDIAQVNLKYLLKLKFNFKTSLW

[9] = target: T1, Poly [ADP-ribose] polymerase 1; experiment: Inhibition of PARP1 in BRCA2 deficient human Capan1 cells assessed as increase in DNA double stranded breaks by measuring gammaH2AX levels after 48 hrs by Western blot analysis
[10] = test system: MDA-MB-436; experiment: Antitumor activity against human MDA-MB-436 cells harboring BRCA1 mutant xenografted in nude BALB/cA mouse assessed as tumor growth inhibition at 50 mg/kg, po administered once daily for 21 consecutive days measured twice per week; format: functional; conditions: MDA-MB-436, po, read-out: TGI
[11] = test system: CAPAN-1; experiment: Effect on total ATM protein levels in human Capan1 cells at 0.1 to 1 uM after 48 hrs by Western blot analysis; format: ADME, cell-based; conditions: capan-1, 48 h
[12] = test system: MDA-MB-436; experiment: Antiproliferative activity against human MDA-MB-436 cells after 7 days by CCK8 or SRB assay; format: functional, cell-based; conditions: MDA-MB-436, 168 h
[13] = target: T1, Poly [ADP-ribose] polymerase 1; experiment: Inhibition of PARP1 in BRCA2 deficient human Capan1 cells assessed as increase in DNA double stranded breaks by measuring gammaH2AX levels after 72 hrs by Western blot analysis
[14] = test system: MDA-MB-436; experiment: Induction of apoptosis in human MDA-MB-436 cells assessed as late apoptotic cells at 1 uM after 96 hrs by Annexin V-FITC/propidium iodide double-staining based flow cytometery (reference value: 5.61%); format: functional
[15] = Apparent permeability across apical to basolateral side in human Caco2 cells after 2 hrs by LC-MS/MS analysis; format: ADME, cell-based; conditions: Caco-2
[16] = Retention time in mouse liver microsomes at 2 uM up to 60 mins in presence of NADPH by LC-MS/MS analysis; format: ADME, microsome; conditions: 1 h
[17] = target: T1, Poly [ADP-ribose] polymerase 1; experiment: Inhibition of PARP1 in human Capan1 cells assessed as increase in formation of phosphorylated ATM foci in cells at 10 uM after 48 hrs by confocal microscopy; format: cell-based
[18] = test system: MDA-MB-436; experiment: Induction of apoptosis in human MDA-MB-436 cells assessed as early apoptotic cells at 0.1 uM after 96 hrs by Annexin V-FITC/propidium iodide double-staining based flow cytometery (reference value: 1.90%); format: functional
[19] = test system: CAPAN-1; experiment: Cell cycle arrest in human Capan1 cells assessed as accumulation at G2/M phase at 1 uM after 72 hrs by propidium iodide-staining based flow cytometry (reference value: 15.26%); format: functional
[20] = test system: MDA-MB-436; experiment: Induction of apoptosis in human MDA-MB-436 cells assessed as late apoptotic cells at 0.1 uM after 96 hrs in presence of pancaspase inhibitor Z-VAD-FMK by Annexin V-FITC/propidium iodide double-staining based flow cytometery (reference value: 5.11%); format: functional
[21] = test system: CAPAN-1; experiment: Cell cycle arrest in human Capan1 cells assessed as accumulation at G2/M phase at 10 uM after 72 hrs by propidium iodide-staining based flow cytometry (reference value: 15.26%); format: functional
[22] = Cmax in Sprague-Dawley rat at 10 mg/kg, po by LC-MS/MS analysis; format: ADME, organism-based; design: dose 10 mg/kg, route oral; conditions: in vivo
[23] = test system: Mus musculus; experiment: Toxicity in nude BALB/cA mouse xenografted with human MDA-MB-436 cells harboring BRCA1 mutant assessed as weight loss at 50 mg/kg, po administered once daily for 21 consecutive days measured twice per week; format: organism-based; conditions: in vivo
[24] = Apparent permeability across basolateral to apical side in human Caco2 cells assessed as drug recovery at 16870 pmol after 2 hrs by LC-MS/MS analysis; format: ADME, cell-based; conditions: Caco-2, read-out: Drug recovery
[25] = Half life in Sprague-Dawley rat at 5 mg/kg, iv by LC-MS/MS analysis; format: ADME, organism-based; conditions: in vivo
[26] = Volume of distribution in Sprague-Dawley rat at 5 mg/kg, iv by LC-MS/MS analysis; format: ADME, organism-based; conditions: in vivo
[27] = test system: CAPAN-1; experiment: Cell cycle arrest in human Capan1 cells assessed as accumulation at S phase at 10 uM after 72 hrs by propidium iodide-staining based flow cytometry (reference value: 21.42%); format: functional
[28] = target: T1, Poly [ADP-ribose] polymerase 1; experiment: Inhibition of PARP1 in human Capan1 cells assessed as increase in phosphorylated chk1 protein levels at 0.1 to 1 uM after 48 hrs by Western blot analysis; format: cell-based
[29] = test system: MDA-MB-436; experiment: Induction of apoptosis in human MDA-MB-436 cells assessed as early apoptotic cells at 1 uM after 96 hrs by Annexin V-FITC/propidium iodide double-staining based flow cytometery (reference value: 1.90%); format: functional
[30] = Drug metabolism in mouse liver microsomes assessed as oxidative metabolite formation at 2 uM up to 60 mins in presence of NADPH by LC-MS/MS analysis; format: ADME, microsome; conditions: 1 h
[31] = test system: MDA-MB-436; experiment: Induction of apoptosis in human MDA-MB-436 cells after 96 hrs by Annexin V-FITC/propidium iodide double-staining based flow cytometery; format: functional, cell-based
[32] = test system: Mus musculus; experiment: Toxicity in nude BALB/cA mouse xenografted with human Capan1 cells harboring BRCA2 mutant assessed as mortality at 40 mg/kg, po administered once daily for 21 consecutive days measured twice per week; format: organism-based; conditions: in vivo
[33] = Drug metabolism in mouse liver microsomes assessed as dehydrogenation at 2 uM up to 60 mins in presence of NADPH by LC-MS/MS analysis; format: ADME, microsome; conditions: 1 h
[34] = Stability in mouse plasma at 1 uM up to 60 mins by LC-MS/MS analysis; format: ADME, cell-free; conditions: read-out: Stability
[35] = test system: CAPAN-1; experiment: Cell cycle arrest in human Capan1 cells assessed as accumulation at G0/G1 phase at 10 uM after 72 hrs by propidium iodide-staining based flow cytometry (reference value: 63.33%); format: functional
[36] = test system: CAPAN-1; experiment: Cell cycle arrest in human Capan1 cells assessed as accumulation at G0/G1 phase at 0.1 uM after 72 hrs by propidium iodide-staining based flow cytometry (reference value: 63.33%); format: functional
[37] = Half life in Sprague-Dawley rat at 10 mg/kg, po by LC-MS/MS analysis; format: ADME, organism-based; conditions: in vivo

N#Cc1cccnc1N1CCN(C(=O)c2cc(Cc3n[nH]c(=O)c4ccccc34)cc(F)c2F)CC1
Activity [1]: Non-Toxic | Activity [2]: 29.32% | Activity [3]: Active | inhibition in vivo at 40 mg/kg [4]: 48.1% | bioavailability [5]: 4.7% | fraction unbound at 4 h, up to 50 µM [6]: 0.012 | pIC50 [7]: 11.52 | pIC50 [8]: 8.89 | inhibition [9]: Dose-dependent effect | inhibition in vivo at 50 mg/kg [10]: 94.2% | Activity [11]: Non-Toxic | pIC50 [12]: 9.70 | inhibition [13]: Dose-dependent effect | Activity [14]: 32.34% | Papp A→B at 2 h [15]: 68 nm/s | Retention_time [16]: 7.8 min | inhibition [17]: Active | Activity [18]: 5.36% | Activity [19]: 49.95% | Activity [20]: 17.99% | Activity [21]: 72.45% | Cmax [22]: 0.0744 µg/mL | Activity [23]: Non-Toxic | recovery at 2 h [24]: 109% | half-life [25]: 5.3 h | Vd [26]: 27.5 L/kg | Activity [27]: 22.4% | inhibition [28]: Active | Activity [29]: 7.09% | Drug metabolism [30]: Metabolite_Detected | Activity [31]: Dose-dependent effect | Activity [32]: Non-Toxic | Drug metabolism [33]: Metabolite_Detected | remaining at 1 h, 1 µM [34]: 105% | Activity [35]: 5.15% | Activity [36]: 55.92% | half-life [37]: 3 h
